According to US20200030242A1, “ORAL DOSAGE FORM WITH DRYING AGENT FOR DELIVERY OF ACTIVE AGENT” (Entrega Inc., priority 2016, published 2020):

Experiment: Surgical Bioavailability Assay
Type: in vivo, porcine model
Settings: neat active agent powder placed via surgical incision, compared to a control oral dosage form
From the text: “Surgical Bioavailability Assay” as used herein refers to an assay used to determine bioavailability of an active agent using a surgical testing method. In the Surgical Bioavailability Assay, a porcine model is also used, in which the animals undergo open surgery such that oral dosage forms to be tested can be placed at regions of the intestine of interest, such as the jejunum and ileum. After administration of anesthesia, a ventral midline incision is made to gain access to the animal's abdominal cavity. The jejunum and ileum are exposed, and incisions are made to manually place the oral dosage forms being tested. After oral dosage form placement is complete, the intestinal incisions are closed, and the midline incision can also be temporarily closed. Also, access can be made for blood collection via the carotid artery or jugular vein. […] The percent bioavailability of the active agent provided with the oral dosage form is determined on the basis of the active agent levels detected in these blood samples.
Surgical Bioavailability Assay. […] The percent bioavailability of the active agent provided with the oral dosage form is determined on the basis of the active agent levels detected in these blood samples.

| Compound | bioavailability (FIG. 4) |
| --- | --- |
| C[C@@H](O)[C@@H]1NC(=O)[C@H](CCCCN)NC(=O)[C@@H](Cc2c[nH]c3ccccc23)NC(=O)[C@H](Cc2ccccc2)NC(=O)[C@@H](NC(=O)[C@H](N)Cc2ccccc2)CSSC[C@@H](C(=O)N[C@H](CO)[C@@H](C)O)NC1=O [octreotide] | good bioavailability |
| calcitonin | good bioavailability |
